For 39 molecules, ΔTm results are on record in US20240317727A1 (Duke University, priority 2018, published 2024).

A word on the ΔTm: it is the shift of the melting midpoint relative to a reference.

The first assay deals with T1, recombinant HSF1 DNA-binding domain (DBD) (Homo sapiens, UniProt Q00613).
T1 sequence (Q00613 15-120): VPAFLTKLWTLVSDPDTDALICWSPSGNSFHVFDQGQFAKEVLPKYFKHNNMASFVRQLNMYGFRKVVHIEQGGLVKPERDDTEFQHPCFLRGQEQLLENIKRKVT
In words: Differential Scanning Fluorimetry (DSF), HSF1 DBD melting temperature. The conditions noted are these: Table 1; 5 μM HSF1 DBD, 25PM Compound; positive = stabilizes, negative = destabilizes HSF1. (Differential scanning fluorimetry follows unfolding on heating by fluorescence.)
Take `O=C(Nc1ccc(F)cc1)Nc1cccc([N+](=O)[O-])c1` [Compound 0076, 1-(4-fluorophenyl)-3-(3-nitrophenyl)urea]: the thermal shift (ΔTm) at 25 µM is -7.23 °C.

As for `O=[N+]([O-])c1cc(C(F)(F)F)cc([N+](=O)[O-])c1Oc1ccc(I)cc1` [Compound 0077], the ΔTm at 25 µM came out at 2.5 °C. On the same count and under the same terms, then `O=C(Nc1cccc(Cl)c1)Nc1cccc([N+](=O)[O-])c1` [Compound 0078, 1-(3-chlorophenyl)-3-(3-nitrophenyl)urea], with 2.25 °C; and `O=C(Nc1ccc(Cl)c([N+](=O)[O-])c1)Nc1ccc(F)cc1C1(C(F)(F)F)N=N1` [Compound 0079, 1-(4-chloro-3-nitro-phenyl)-3-[4-fluoro-2-[3-(trifluoromethyl)diazirin-3-yl]phenyl]urea], with 2.25 °C.

On to `O=[N+]([O-])c1cc(NC2=NS(=O)(=O)N=C2Nc2ccc(F)cc2)ccc1Cl` [Compound 0080, N3-(4-chloro-3-nitro-phenyl)-N4-(4-fluorophenyl)-1,1-dioxo-1,2,5-thiadiazole-3,4-diamine], for which the shift in melting temperature (ΔTm) at 25 µM came to 1.6 °C. Regarding `c1ccc(-c2ccc(C(c3ccccc3)n3ccnc3)cc2)cc1` (stereo not drawn) [Compound 0081], the shift in melting temperature (ΔTm) at 25 µM is -3.6 °C. Consider `Cc1ccc(/C=N/NC(=O)c2c[nH]c3ccccc23)s1` [Compound 0082], for which the ΔTm at 25 µM was determined as 3.9 °C.

Turning to `N#Cc1cc(NC(=O)Nc2ccc(F)cc2)ccc1Cl` [Compound 0083, 1-(4-chloro-3-cyano-phenyl)-3-(4-fluorophenyl) urea], the thermal shift (ΔTm) at 25 µM stood at 2 °C.

With `CC(C)(C)c1ccc(-c2nnc(SCC(=O)NCc3ccccc3)n2-c2ccccc2)cc1` [Compound 0084], the thermal shift (ΔTm) at 25 µM is -8.96 °C.

Consider `O=C(Nc1ccccc1)Nc1ccc(OC(F)(F)F)cc1` [Compound 0085], for which the ΔTm at 25 µM came to 3.26 °C. On the same count and under the same terms, for `O=C(O)C1=CC(=C(c2ccc(O)c(C(=O)O)c2)c2ccc(O)c(C(=O)O)c2)C=CC1=O` [Compound 0086] the value was -11.5 °C. With `CCOc1ccc(S(=O)(=O)NCc2ccccn2)c2ccccc12` [Compound 0087], the thermal shift (ΔTm) at 25 µM is -9.24 °C. For `COc1cc2cc(N(C)CCCNC(=O)C3CCCO3)cc(N)c2cc1OC` (stereo not drawn) [Compound 0088], the ΔTm at 25 µM is -3.02 °C. Same read-out and setting: for `COc1ccc(CSc2ccc([N+](=O)[O-])c3nonc23)cc1` [Compound 0089] the value was -5.73 °C; for `O=C(Nc1ccc(F)cc1)Nc1ccc(Cl)nc1` [Compound 0090, 1-(6-chloro-3-pyridyl)-3-(4-fluorophenyl) urea], 0.67 °C; for `O=C(Nc1ccccc1)Nc1cccc(Cl)c1` [Compound 0091, 1-(3-chlorophenyl)-3-phenylurea], 2.5 °C. On the same count and under the same terms, then `O=c1c(Nc2ccc(F)c(F)c2)c(Nc2ccc(Cl)c(C(F)(F)F)c2)c1=O` [Compound 0092, 3-[4-chloro-3-(trifluoromethyl)anilino]-4-(3,4-difluoroanilino)cyclobut-3-ene-1,2-dione], with 2.33 °C; and `Cc1cc([N+](=O)[O-])cc([N+](=O)[O-])c1Sc1ncc2ccccn12` [Compound 0093], with -3.44 °C. For `O=C(Nc1ccc(Cl)c([N+](=O)[O-])c1)Nc1ccc(F)c(C2(C(F)(F)F)N=N2)c1` [Compound 0094, 1-(4-chloro-3-nitro-phenyl)-3-[4-fluoro-3-[3-(trifluoromethyl)diazirin-3-yl]phenyl]urea], the ΔTm at 25 µM amounted to 2.92 °C. Same read-out and setting: for `CC(=O)Nc1cc(NC(=O)Nc2ccc(F)cc2)ccc1Cl` [Compound 0095, N-[2-chloro-5-[(4-fluorophenyl)carbamoylamino]phenyl]acetamide] the value was 0.67 °C. The same measure, in the same setting: then `O=C(Nc1ccc(F)cc1)Nc1ccc(Cl)cc1` [Compound 0096, 1-(4-chlorophenyl)-3-(4-fluorophenyl)urea], with 2.61 °C; and `O=C(Nc1ccc(S(=O)(=O)N2CCCCC2)cc1)c1cccc(Cl)c1` [Compound 0097], with 3.43 °C. The same measure, in the same setting: then `O=C(COc1ccc(Cl)cc1Cl)N/N=C/c1c[nH]c2ccccc12` [Compound 0098], with 4.93 °C; and `CCN1C(=O)/C(=C\c2cc([N+](=O)[O-])cc(Br)c2O)SC1=S` [Compound 0099], with -6.74 °C. Consider `Cc1c2oc3c(C)c(O)c(I)cc3c(-c3c(Cl)c(Cl)c(Cl)c(Cl)c3C(=O)O)c-2cc(I)c1=O` [Compound 0100], for which the ΔTm at 25 µM is -7.52 °C. On the same count and under the same terms, for `O=C(Nc1ccc(F)c(F)c1)Nc1ccc(Cl)c(C(F)(F)F)c1` [Compound 0101, 1-(4-chloro-3-(trifluoromethyl)phenyl)-3-(3,4-difluorophenyl)urea] the value was 3.33 °C. The same measure, in the same setting: for `O=[N+]([O-])c1cc(C(F)(F)F)cc([N+](=O)[O-])c1Oc1ccc(C2CCCCC2)cc1` [Compound 0102] the value was -6.23 °C; for `O=C(Nc1ccc(F)cc1)Nc1ccc(Cl)c(O)c1` [Compound 0103, 1-(4-chloro-3-hydroxyphenyl)-3-(4-fluorophenyl)urea], 4.7 °C.

Staying with this assay, now noted: Table 3; 5 μM HSF1 DBD, 25PM Compound; positive = stabilizes, negative = destabilizes HSF1.
Regarding `O=C(Nc1ccc(F)cc1)Nc1cccc([N+](=O)[O-])c1` [Compound 076, 1-(4-fluorophenyl)-3-(3-nitrophenyl)urea], the ΔTm at 25 µM was 2.61 °C. Regarding `O=C(Nc1cccc(Cl)c1)Nc1cccc([N+](=O)[O-])c1` [Compound 078, 1-(3-chlorophenyl)-3-(3-nitrophenyl)urea], the ΔTm at 25 µM came to 2.5 °C. Still for that read-out and setting: then `O=C(Nc1ccc(Cl)c([N+](=O)[O-])c1)Nc1ccc(F)cc1C1(C(F)(F)F)N=N1` [Compound 079, 1-(4-chloro-3-nitro-phenyl)-3-[4-fluoro-2-[3-(trifluoromethyl)diazirin-3-yl]phenyl]urea], with 2.25 °C; and `O=[N+]([O-])c1cc(NC2=NS(=O)(=O)N=C2Nc2ccc(F)cc2)ccc1Cl` [Compound 080, N3-(4-chloro-3-nitro-phenyl)-N4-(4-fluorophenyl)-1,1-dioxo-1,2,5-thiadiazole-3,4-diamine], with 1.6 °C; and `N#Cc1cc(NC(=O)Nc2ccc(F)cc2)ccc1Cl` [Compound 083, 1-(4-chloro-3-cyano-phenyl)-3-(4-fluorophenyl) urea], with 2 °C. Still for that read-out and setting: for `O=C(Nc1ccc(F)cc1)Nc1ccc(Cl)nc1` [Compound 090, 1-(6-chloro-3-pyridyl)-3-(4-fluorophenyl) urea] the value was 0.67 °C; for `O=C(Nc1ccccc1)Nc1cccc(Cl)c1` [Compound 091, 1-(3-chlorophenyl)-3-phenylurea], 2.5 °C. In the case of `O=c1c(Nc2ccc(F)c(F)c2)c(Nc2ccc(Cl)c(C(F)(F)F)c2)c1=O` [Compound 092, 3-[4-chloro-3-(trifluoromethyl)anilino]-4-(3,4-difluoroanilino)cyclobut-3-ene-1,2-dione], the ΔTm at 25 µM is 2.33 °C. Same read-out and setting: then `O=C(Nc1ccc(Cl)c([N+](=O)[O-])c1)Nc1ccc(F)c(C2(C(F)(F)F)N=N2)c1` [Compound 094, 1-(4-chloro-3-nitro-phenyl)-3-[4-fluoro-3-[3-(trifluoromethyl)diazirin-3-yl]phenyl]urea], with 2.92 °C. The same measure, in the same setting: then `CC(=O)Nc1cc(NC(=O)Nc2ccc(F)cc2)ccc1Cl` [Compound 095, N-[2-chloro-5-[(4-fluorophenyl)carbamoylamino]phenyl]acetamide], with 0.67 °C; and `O=C(Nc1ccc(F)cc1)Nc1ccc(Cl)cc1` [Compound 096, 1-(4-chlorophenyl)-3-(4-fluorophenyl)urea], with 2.61 °C.
